EC30 data for 28 compounds are collected here from patent publication US10758534B2 (Vertex Pharmaceuticals Incorporated, priority 2014, dated 2020).

T1 sequence (P13569 with tags, fused parts or gaps DEL508-508): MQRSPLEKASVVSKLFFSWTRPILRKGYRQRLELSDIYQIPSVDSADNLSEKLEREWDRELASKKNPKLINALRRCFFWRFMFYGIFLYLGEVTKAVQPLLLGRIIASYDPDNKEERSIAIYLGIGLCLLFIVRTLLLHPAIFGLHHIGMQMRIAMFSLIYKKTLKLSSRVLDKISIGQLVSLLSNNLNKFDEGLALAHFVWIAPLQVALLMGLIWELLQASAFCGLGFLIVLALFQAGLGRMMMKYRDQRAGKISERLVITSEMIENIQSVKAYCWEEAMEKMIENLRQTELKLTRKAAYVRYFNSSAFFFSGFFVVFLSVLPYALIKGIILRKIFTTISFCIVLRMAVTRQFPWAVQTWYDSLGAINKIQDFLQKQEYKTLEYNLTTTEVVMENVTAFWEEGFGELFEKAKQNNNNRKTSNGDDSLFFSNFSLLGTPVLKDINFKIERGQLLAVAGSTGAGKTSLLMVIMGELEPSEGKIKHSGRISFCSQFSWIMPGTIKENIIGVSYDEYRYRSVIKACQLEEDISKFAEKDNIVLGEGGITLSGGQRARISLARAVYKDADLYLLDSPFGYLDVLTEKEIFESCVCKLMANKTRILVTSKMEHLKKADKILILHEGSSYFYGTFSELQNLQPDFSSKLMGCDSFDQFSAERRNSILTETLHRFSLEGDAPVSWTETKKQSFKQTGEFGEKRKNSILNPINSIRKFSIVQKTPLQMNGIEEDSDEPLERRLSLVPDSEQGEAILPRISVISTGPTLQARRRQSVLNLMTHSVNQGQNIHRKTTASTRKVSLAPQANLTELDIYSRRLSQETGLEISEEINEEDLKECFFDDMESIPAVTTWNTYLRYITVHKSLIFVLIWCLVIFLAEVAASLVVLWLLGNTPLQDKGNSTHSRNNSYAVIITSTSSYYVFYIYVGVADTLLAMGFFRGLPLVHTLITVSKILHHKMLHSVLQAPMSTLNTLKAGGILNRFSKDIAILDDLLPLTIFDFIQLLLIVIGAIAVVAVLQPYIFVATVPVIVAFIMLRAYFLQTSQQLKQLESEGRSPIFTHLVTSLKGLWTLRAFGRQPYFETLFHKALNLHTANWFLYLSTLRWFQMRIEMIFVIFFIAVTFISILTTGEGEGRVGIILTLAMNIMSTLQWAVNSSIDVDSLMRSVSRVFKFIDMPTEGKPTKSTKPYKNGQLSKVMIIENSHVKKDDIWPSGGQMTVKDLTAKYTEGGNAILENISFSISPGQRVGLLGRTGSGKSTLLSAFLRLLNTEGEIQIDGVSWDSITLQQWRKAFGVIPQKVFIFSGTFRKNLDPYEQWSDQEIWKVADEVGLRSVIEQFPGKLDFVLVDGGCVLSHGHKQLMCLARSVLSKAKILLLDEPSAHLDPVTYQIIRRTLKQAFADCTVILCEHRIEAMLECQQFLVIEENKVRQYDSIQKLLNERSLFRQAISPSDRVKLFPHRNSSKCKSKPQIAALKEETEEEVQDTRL

The test has as its target T1, F508del (Homo sapiens, UniProt P13569, DEL508-508).
T1 construct: expressed in transfected cells
As to the kind of experiment: Protocol 1: membrane potential optical assay (FLIPR III, voltage sensing dye), identification of potentiator compounds. It is filed as cell-based. To be noted: Table 3, compounds of Table 1. In outline: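 Gating potentiation is read as a membrane-potential fluorescence change (FLIPR III, voltage-sensing dye) after one forskolin addition under a Cl− gradient, with gluconate replacing chloride, pH 7.4. Cells are F508del-expressing NIH3T3 mouse fibroblasts held 24 h at 27 °C and exposed to compound before dye loading.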
As to `CC(C)COc1cc(F)cc(-c2ccc(C(=O)NS(=O)(=O)c3cccc(N)n3)c(OCC3CCCCO3)n2)c1` (stereo not shown) [Compound 1570, N-[(6-amino-2-pyridyl)sulfonyl]-6-(3-fluoro-5-isobutoxy-phenyl)-2-(tetrahydropyran-2-ylmethoxy)pyridine-3-carboxamide], the EC30 result is on record as “+++ (“+++” means <3 uM)”. Regarding `CC1(Cn2nc(C(C)(C)C)cc2C(=O)NS(=O)(=O)c2cccc(N)c2)CCCCC1` [Compound 1152, N-(3-aminophenyl)sulfonyl-5-tert-butyl-2-[(1-methylcyclohexyl)methyl]pyrazole-3-carboxamide], the EC30 result is “+ (“+” means greater than 10 uM)”. On to `CCOc1cccc(-c2ccc(C(=O)NS(=O)(=O)c3cccc(N)n3)c(Oc3c(C)cc(C)cc3C)n2)n1` [Compound 1133, N-[(6-amino-2-pyridyl)sulfonyl]-6-(6-ethoxy-2-pyridyl)-2-(2,4,6-trimethylphenoxy)pyridine-3-carboxamide], for which the EC30 result is reported as “+++ (“+++” means <3 uM)”.

As to `CC1CN(c2nc(C(C)(C)C)c(C3=CCN(C)CC3)cc2C(=O)NS(=O)(=O)c2cccc(N)n2)C(C)(C)C1` (stereo not shown) [Compound 1382, N-[(6-amino-2-pyridyl)sulfonyl]-6-tert-butyl-5-(1-methyl-3,6-dihydro-2H-pyridin-4-yl)-2-(2,2,4-trimethylpyrrolidin-1-yl)pyridine-3-carboxamide], the EC30 entry is on record as “+ (“+” means greater than 10 uM)”. Regarding `CC(C)CCOc1cccc(-c2ccc(C(=O)NS(=O)(=O)c3cccc(N)n3)c(N3CC(C)CC3(C)C)n2)n1` (stereo not shown) [Compound 1135, N-[(6-amino-2-pyridyl)sulfonyl]-6-(6-isopentyloxy-2-pyridyl)-2-(2,2,4-trimethylpyrrolidin-1-yl)pyridine-3-carboxamide], the EC30 result is reported as “+++ (“+++” means <3 uM)”.

Regarding `CCCOc1cccc(-c2ccc(C(=O)NS(=O)(=O)c3ccc[nH]c3=O)c(Oc3c(C)cc(C)cc3C)n2)c1Cl` [Compound 955, 6-(2-chloro-3-propoxy-phenyl)-N-[(2-oxo-1H-pyridin-3-yl)sulfonyl]-2-(2,4,6-trimethylphenoxy)pyridine-3-carboxamide], the EC30 entry is “++ (“++” means between 3 uM and 10 uM)”. In the case of `C[C@@H]1CN(c2nc(C(C)(C)C)c(/C=C/C3CCCC3)cc2C(=O)NS(=O)(=O)c2cccc(N)n2)C(C)(C)C1` [Compound 1633, N-[(6-amino-2-pyridyl)sulfonyl]-6-tert-butyl-5-[(E)-2-cyclopentylvinyl]-2-[(4S)-2,2,4-trimethylpyrrolidin-1-yl]pyridine-3-carboxamide], the EC30 entry is on record as “+++ (“+++” means <3 uM)”. Take `COc1ccc(-c2ccc(C(=O)NS(=O)(=O)c3cccc(N)n3)c(N3[C@H](C)CC[C@@H]3C)n2)cc1` [Compound 1215, N-[(6-amino-2-pyridyl)sulfonyl]-2-[(2S,5R)-2,5-dimethylpyrrolidin-1-yl]-6-(4-methoxyphenyl)pyridine-3-carboxamide]: the EC30 entry is “++ (“++” means between 3 uM and 10 uM)”.

On to `CC(C)COc1cc(F)cc(-c2ccc(C(=O)NS(=O)(=O)c3cccc(CO)n3)c(N3CCC(C)CC3)n2)c1` [Compound 1340, 6-(3-fluoro-5-isobutoxy-phenyl)-N-[[6-(hydroxymethyl)-2-pyridyl]sulfonyl]-2-(4-methyl-1-piperidyl)pyridine-3-carboxamide], for which the EC30 result is reported as “+++ (“+++” means <3 uM)”. Consider `C[C@@H]1CN(c2nc(-c3ccc(F)cc3)ccc2C(=O)NS(=O)(=O)c2ccc[nH]c2=O)C(C)(C)C1` [Compound 1807, 6-(4-fluorophenyl)-N-[(2-oxo-1H-pyridin-3-yl)sulfonyl]-2-[(4S)-2,2,4-trimethylpyrrolidin-1-yl]pyridine-3-carboxamide], for which the EC30 result is listed as “+++ (“+++” means <3 uM)”. On to `CC1CCN(c2nc3c(cc2C(=O)NS(=O)(=O)c2ccn[nH]2)CCCC3(C)C)CC1` [Compound 800, 8,8-dimethyl-2-(4-methyl-1-piperidyl)-N-(1H-pyrazol-5-ylsulfonyl)-6,7-dihydro-5H-quinoline-3-carboxamide], for which the EC30 entry is “++ (“++” means between 3 uM and 10 uM)”. In the case of `Cc1cc(C)c(Oc2nc(C3=CCSCC3)ccc2C(=O)NS(=O)(=O)c2cccc(N)n2)c(C)c1` [Compound 1517, N-[(6-amino-2-pyridyl)sulfonyl]-6-(3,6-dihydro-2H-thiopyran-4-yl)-2-(2,4,6-trimethylphenoxy)pyridine-3-carboxamide], the EC30 result was “+++ (“+++” means <3 uM)”. Regarding `COc1ccc(-c2ccc(C(=O)NS(=O)(=O)c3ccc[nH]c3=O)c(Oc3c(C)cc(C)cc3C)n2)c(F)c1` [Compound 839, 6-(2-fluoro-4-methoxy-phenyl)-N-[(2-oxo-1H-pyridin-3-yl)sulfonyl]-2-(2,4,6-trimethylphenoxy)pyridine-3-carboxamide], the EC30 result is “++ (“++” means between 3 uM and 10 uM)”. For `Cc1cc(OC(C)C)ncc1-c1ccc(C(=O)NS(=O)(=O)c2cccc(N)n2)c(N2[C@H](C)CC[C@@H]2C)n1` [Compound 1514, N-[(6-amino-2-pyridyl)sulfonyl]-2-[(2R,5S)-2,5-dimethylpyrrolidin-1-yl]-6-(6-isopropoxy-4-methyl-3-pyridyl)pyridine-3-carboxamide], the EC30 entry is “+++ (“+++” means <3 uM)”. Regarding `CCOc1cccc2c1CN(Cc1c(C)cc(C)cc1C)C2(C)C(=O)NS(=O)(=O)c1cccnc1N` (stereo not shown) [Compound 1591, N-[(2-amino-3-pyridyl)sulfonyl]-4-ethoxy-1-methyl-2-[(2,4,6-trimethylphenyl)methyl]isoindoline-1-carboxamide], the EC30 entry is reported as “+++ (“+++” means <3 uM)”. As for `CCOc1ccc(-c2ccc(C(=O)NS(=O)(=O)c3ccc[nH]c3=O)c(Oc3c(C)cc(C)cc3C)n2)cc1F` [Compound 901, 6-(4-ethoxy-3-fluoro-phenyl)-N-[(2-oxo-1H-pyridin-3-yl)sulfonyl]-2-(2,4,6-trimethylphenoxy)pyridine-3-carboxamide], the EC30 result is “++ (“++” means between 3 uM and 10 uM)”.

In the case of `CC(C)(C)c1ccc(C(=O)NS(=O)(=O)c2cccc(N)n2)c(Oc2ccc(F)cc2F)n1` [Compound 829, N-[(6-amino-2-pyridyl)sulfonyl]-6-tert-butyl-2-(2,4-difluorophenoxy)pyridine-3-carboxamide], the EC30 result is “+++ (“+++” means <3 uM)”. Next, `Cc1cc(C)c(Oc2nc(-c3ccc4c(c3)OCO4)ccc2C(=O)NS(=O)(=O)c2cccc(N)n2)c(C)c1` [Compound 1207, N-[(6-amino-2-pyridyl)sulfonyl]-6-(1,3-benzodioxol-5-yl)-2-(2,4,6-trimethylphenoxy)pyridine-3-carboxamide]: “+++ (“+++” means <3 uM)”. The value for `CCCc1ccc(S(=O)(=O)NC(=O)C2(C)c3cccc(OCC)c3CN2Cc2c(C)cc(C)cc2C)cc1N` (stereo not shown) [Compound 1367, N-(3-amino-4-propyl-phenyl)sulfonyl-4-ethoxy-1-methyl-2-[(2,4,6-trimethylphenyl)methyl]isoindoline-1-carboxamide] was “+++ (“+++” means <3 uM)”; that for `Cc1cc(C)c(CN2c3ccccc3C[C@@H]2C(=O)NS(=O)(=O)c2ccccc2)c(C)c1` [Compound 918, (2R)—N-(benzenesulfonyl)-1-[(2,4,6-trimethylphenyl)methyl]indoline-2-carboxamide] was “+++ (“+++” means <3 uM)”. Take `Cc1cc(C)c(CN2CCc3ccccc3CC2C(=O)NS(=O)(=O)c2cccc(NCCO)n2)c(C)c1` (stereo not shown) [Compound 838, N-[[6-(2-hydroxyethylamino)-2-pyridyl]sulfonyl]-3-[(2,4,6-trimethylphenyl)methyl]-1,2,4,5-tetrahydro-3-benzazepine-4-carboxamide]: the EC30 entry is “++ (“++” means between 3 uM and 10 uM)”. In the case of `Cc1cc(C)c(Oc2nc(C3=CCC(C)CC3)ccc2C(=O)NS(=O)(=O)c2ccc[nH]c2=O)c(C)c1` (stereo not shown) [Compound 1052, 6-(4-methylcyclohexen-1-yl)-N-[(2-oxo-1H-pyridin-3-yl)sulfonyl]-2-(2,4,6-trimethylphenoxy)pyridine-3-carboxamide], the EC30 result is given as “+++ (“+++” means <3 uM)”. For `COc1ncccc1S(=O)(=O)NC(=O)c1cc2c(nc1Oc1ccc(C)cc1C)C(C)(C)CCC2` [Compound 1347, 2-(2,4-dimethylphenoxy)-N-[(2-methoxy-3-pyridyl)sulfonyl]-8,8-dimethyl-6,7-dihydro-5H-quinoline-3-carboxamide], the EC30 result was “+++ (“+++” means <3 uM)”. Next, `Cc1cc(C)c(Oc2nc(C3=CCC(C(F)(F)F)CC3)ccc2C(=O)NS(=O)(=O)c2cccc(N)n2)c(C)c1` (stereo not shown) [Compound 1402, N-[(6-amino-2-pyridyl)sulfonyl]-6-[4-(trifluoromethyl)cyclohexen-1-yl]-2-(2,4,6-trimethylphenoxy)pyridine-3-carboxamide]: “+++ (“+++” means <3 uM)”. `CCc1ccnc(Nc2cccc(S(=O)(=O)NC(=O)c3cccnc3N3CC(C)CC3(C)C)n2)c1` (stereo not shown) [Compound 1862, N—[[6-[(4-ethyl-2-pyridyl)amino]-2-pyridyl]sulfonyl]-2-(2,2,4-trimethylpyrrolidin-1-yl)pyridine-3-carboxamide]: the EC30 entry is recorded as “+++ (“+++” means <3 uM)”. Take `CCOc1cccc2c1CN(Cc1c(C)cc(C)cc1C)C2(C)C(=O)NS(=O)(=O)c1ccc(C(C)C)c(N)c1` (stereo not shown) [Compound 1562, N-(3-amino-4-isopropyl-phenyl)sulfonyl-4-ethoxy-1-methyl-2-[(2,4,6-trimethylphenyl)methyl]isoindoline-1-carboxamide]: the EC30 entry is reported as “+++ (“+++” means <3 uM)”. The value for `Cc1cc(C)c(CN2C(C(=O)NS(=O)(=O)c3ccc[nH]c3=O)c3ccccc3C2(C)C)c(C)c1` (stereo not shown) [Compound 1085, 3,3-dimethyl-N-[(2-oxo-1H-pyridin-3-yl)sulfonyl]-2-[(2,4,6-trimethylphenyl)methyl]isoindoline-1-carboxamide] was “+++ (“+++” means <3 uM)”; that for `CC1CN(c2ncc(-c3cccc(OC4CCCC4)c3)cc2C(=O)NS(=O)(=O)c2cccc(N)n2)C(C)(C)C1` (stereo not shown) [Compound 1918, N-[(6-amino-2-pyridyl)sulfonyl]-5-[3-(cyclopentoxy)phenyl]-2-(2,2,4-trimethylpyrrolidin-1-yl)pyridine-3-carboxamide] was “+++ (“+++” means <3 uM)”.
